system: Tunicamycin induced ISR (ATF4) in wild-type HEK293 cells; test: HEK-ATF4 High Content Imaging assay (prevention of Tunicamycin induced ISR, ATF4 nucleus/cytoplasm signal ratio); assay type: cell-based; conditions: Homo sapiens, 6 hrs incubation, ATF4 immunofluorescence
Procedure: HEK-ATF4 High Content Imaging Assay
Example compounds were tested in the HEK-ATF4 High Content Imaging assay to assess their pharmacological potency to prevent Tunicamycin induced ISR. Wild-type HEK293 cells were plated in 384-well imaging assay plates at a density of 12,000 cells per well in growth medium (containing DMEM/F12, 10% FBS, 2 mM L-Glutamine, 100 U/mL Penicillin—100 μg/mL Streptomycin) and incubated at 37° C., 5% CO2. 24-hrs later, the medium was changed to 50 μl assay medium per well (DMEM/F12, 0.3% FBS, 2 mM L-Glutamine, 100 U/mL Penicillin—100 μg/mL Streptomycin). Example compounds were serially diluted in dimethyl sulfoxide (DMSO), spotted into intermediate plates and prediluted with assay medium containing 3.3 μM Tunicamycin to give an 11-fold excess of final assay concentration. In addition to the example compound testing area, the plates also contained multiples of control wells for assay normalization purposes, wells, containing Tunicamycin but no example compounds (High control), as well as wells containing neither example compound nor Tunicamycin (Low control). The assay was started by transferring 5 μl from the intermediate plate into the assay plates, followed by incubation for 6 hrs at 37° C., 5% CO2. Subsequently, cells were fixed (4% PFA in PBS, 20 min at room temperature) and submitted to indirect ATF4 immunofluorescence staining (primary antibody rabbit anti ATF4, clone D4B8, Cell Signaling Technologies; secondary antibody Alexa Fluor 488 goat anti-rabbit IgG (H+L), Thermofisher Scientific). Nuclei were stained using Hoechst dye (Thermofisher Scientific), and plates were imaged on an Opera Phenix High Content imaging platform equipped with 405 nm and 488 nm excitation. Finally, images were analyzed using script based algorithms. The main readout HEK-ATF4 monitored the ATF4 signal ratio between nucleus and cytoplasm. Tunicamycin induced an increase in the overall ATF4 ratio signal, which was prevented by ISR modulating example compounds. In addition, HEK-CellCount readout was derived from counting the number of stained nuclei corresponding to healthy cells. This readout served as an internal toxicity control.

| SMILES | IC50 |
| --- | --- |
| O=C(COc1ccc(Cl)cc1)N[C@@H]1CC[C@@H](c2nnc(-c3ccc(Cl)cc3)o2)OC1 [Example 2, 2-(4-chlorophenoxy)-N-[(3R,6S)-6-[5-(4-chlorophenyl)-1,3,4-oxadiazol-2-yl]oxan-3-yl]acetamide] | 0.001 to 0.5 µM |
| O=C(COc1ccc(Cl)c(F)c1)N[C@@H]1CC[C@@H](c2nnc(-c3cncc(C(F)(F)F)c3)o2)OC1 [Example 16, 2-(4-chloro-3-fluorophenoxy)-N-[(3R,6S)-6-{5-[5-(trifluoromethyl)pyridin-3-yl]-1,3,4-oxadiazol-2-yl}oxan-3-yl]acetamide] | 0.5 to 2 µM |
| O=C(COc1ccc(Cl)c(F)c1)N[C@H]1CC[C@H](c2nnc(-c3ccc(Cl)cc3)o2)OC1 [Example 4, 2-(4-chloro-3-fluorophenoxy)-N-[(3S,6R)-6-[5-(4-chlorophenyl)-1,3,4-oxadiazol-2-yl]oxan-3-yl]acetamide] | 0.001 to 0.5 µM |
| O=C(COc1ccnc(C(F)(F)F)c1)N[C@@H]1CC[C@@H](c2nnc(-c3ccc(Cl)cc3)o2)OC1 [Example 8, N-[(3R,6S)-6-[5-(4-chlorophenyl)-1,3,4-oxadiazol-2-yl]oxan-3-yl]-2-{[2-(trifluoromethyl)pyridin-4-yl]oxy}acetamide] | 0.5 to 2 µM |
| O=C(COc1ccc(Cl)c(F)c1)N[C@@H]1CC[C@@H](c2nnc(-c3ccc(Cl)cc3)o2)OC1 [Example 1, 2-(4-chloro-3-fluoro-phenoxy)-N-[(3R,6S)-6-[5-(4-chlorophenyl)-1,3,4-oxadiazol-2-yl]tetrahydropyran-3-yl]acetamide] | 0.001 to 0.5 µM |
| O=C(COc1ccc(C(F)(F)F)nc1)N[C@@H]1CC[C@@H](c2nnc(-c3ccc(Cl)cc3)o2)OC1 [Example 18] | 0.001 to 0.5 µM |
| O=C(COc1ccc(Cl)c(F)c1)N[C@@H]1CC[C@@H](c2nnc(-c3ccc(C4CC4)nc3)o2)OC1 [Example 5, 2-(4-chloro-3-fluorophenoxy)-N-[(3R,6S)-6-[5-(6-cyclopropylpyridin-3-yl)-1,3,4-oxadiazol-2-yl]oxan-3-yl]acetamide] | 0.001 to 0.5 µM |
| CCc1ccc(-c2nnc([C@@H]3CC[C@@H](NC(=O)COc4ccc(Cl)c(F)c4)CO3)o2)cn1 [Example 6, 2-(4-chloro-3-fluorophenoxy)-N-[(3R,6S)-6-[5-(6-ethylpyridin-3-yl)-1,3,4-oxadiazol-2-yl]oxan-3-yl]acetamide] | 0.5 to 2 µM |
| O=C(COc1ccc(Cl)c(F)c1)N[C@@H]1CC[C@@H](c2nnc(-c3ccc(C(F)(F)F)nc3)o2)OC1 [Example 3, 2-(4-chloro-3-fluorophenoxy)-N-[(3R,6S)-6-{5-[6-(trifluoromethyl)pyridin-3-yl]-1,3,4-oxadiazol-2-yl}oxan-3-yl]acetamide] | 0.001 to 0.5 µM |
| Cc1ccc(OCC(=O)N[C@@H]2CC[C@@H](c3nnc(-c4ccc(Cl)cc4)o3)OC2)cn1 [Example 12, N-[(3R,6S)-6-[5-(4-chlorophenyl)-1,3,4-oxadiazol-2-yl]oxan-3-yl]-2-[(6-methylpyridin-3-yl)oxy]acetamide] | 2 to 15 µM |
| Cc1ncc(OCC(=O)N[C@@H]2CC[C@@H](c3nnc(-c4ccc(Cl)cc4)o3)OC2)cc1F [Example 10, N-[(3R,6S)-6-[5-(4-chlorophenyl)-1,3,4-oxadiazol-2-yl]oxan-3-yl]-2-[(5-fluoro-6-methylpyridin-3-yl)oxy]acetamide] | 0.5 to 2 µM |
| Cc1ncc(OCC(=O)N[C@@H]2CC[C@@H](c3nnc(-c4ccc(Cl)cc4)o3)OC2)cc1Cl [Example 15, 2-[(5-chloro-6-methylpyridin-3-yl)oxy]-N-[(3R,6S)-6-[5-(4-chlorophenyl)-1,3,4-oxadiazol-2-yl]oxan-3-yl]acetamide] | 0.001 to 0.5 µM |
| O=C(COc1cnc(Cl)c(F)c1)N[C@@H]1CC[C@@H](c2nnc(-c3ccc(Cl)nc3)o2)OC1 [Example 11, 2-[(6-chloro-5-fluoropyridin-3-yl)oxy]-N-[(3R,6S)-6-[5-(6-chloropyridin-3-yl)-1,3,4-oxadiazol-2-yl]oxan-3-yl]acetamide] | 2 to 15 µM |
| O=C(COc1ccc(Cl)nc1)N[C@@H]1CC[C@@H](c2nnc(-c3ccc(Cl)cc3)o2)OC1 [Example 9, N-[(3R,6S)-6-[5-(4-chlorophenyl)-1,3,4-oxadiazol-2-yl]oxan-3-yl]-2-[(6-chloropyridin-3-yl)oxy]acetamide] | 0.001 to 0.5 µM |
| O=C(COc1ccc(Cl)c(F)c1)N[C@@H]1CC[C@@H](c2nnc(-c3ccnc(C(F)(F)F)c3)o2)OC1 [Example 17, 2-(4-chloro-3-fluorophenoxy)-N-[(3R,6S)-6-{5-[2-(trifluoromethyl)pyridin-4-yl]-1,3,4-oxadiazol-2-yl}oxan-3-yl]acetamide] | 0.001 to 0.5 µM |
| O=C(COc1cnc(Cl)nc1)N[C@@H]1CC[C@@H](c2nnc(-c3ccc(Cl)cc3)o2)OC1 [Example 14, N-[(3R,6S)-6-[5-(4-chlorophenyl)-1,3,4-oxadiazol-2-yl]oxan-3-yl]-2-[(2-chloropyrimidin-5-yl)oxy]acetamide] | 0.5 to 2 µM |
| O=C(COc1cncc(C(F)(F)F)c1)N[C@@H]1CC[C@@H](c2nnc(-c3ccc(Cl)cc3)o2)OC1 [Example 19, N-[(3R,6S)-6-[5-(4-chlorophenyl)-1,3,4-oxadiazol-2-yl]oxan-3-yl]-2-{[5-(trifluoromethyl)pyridin-3-yl]oxy}acetamide] | 0.5 to 2 µM |
| O=C(COc1cnc(Cl)c(F)c1)N[C@@H]1CC[C@@H](c2nnc(-c3ccc(Cl)cc3)o2)OC1 [Example 7, 2-[(6-chloro-5-fluoropyridin-3-yl)oxy]-N-[(3R,6S)-6-[5-(4-chlorophenyl)-1,3,4-oxadiazol-2-yl]oxan-3-yl]acetamide] | 0.001 to 0.5 µM |
| O=C(COc1cnc(Cl)cn1)N[C@@H]1CC[C@@H](c2nnc(-c3ccc(Cl)cc3)o2)OC1 [Example 13, N-[(3R,6S)-6-[5-(4-chlorophenyl)-1,3,4-oxadiazol-2-yl]oxan-3-yl]-2-[(5-chloropyrazin-2-yl)oxy]acetamide] | 0.5 to 2 µM |
